Experimental findings from patent publication US12673029B2, “Nanodelivery system based on globulin-1 S allele, preparation method therefor and use thereof” (Zhejiang Gongshang University, priority 2022, dated 2026) are described below.

Data set [1] in a line: Light stability assay under UV irradiation (absorbance at 426 nm). To be noted: 30 W UV lamp. Type of data set: physicochemical. The protocol:
0.93 mg of curcumin and 14.96 mg of wheat GSA protein-curcumin composite nanoparticles were accurately weighed to be separately put in petri dishes, and were irradiated at a close range with a 30 W UV lamp, sampling was performed at 0 h, 1 h, 2 h, 3 h, 4 h, 5 h, and 6 h, the samples were separately dissolved with a […], a volume was made up to a constant volume of 250 mL, 10 mL of the prepared solution was taken, and an absorbance at 426 nm was measured, wherein the absorbance was measured for three times to take an average.

Another data set concerns Dendritic cells DC2.4. The data set can be described thus: Biological activity assay in OVA-sensitized dendritic cells DC2.4 (qRT-PCR of pro-inflammatory cytokines). Type of data set: cell-based. To be noted: DC2.4 cells sensitized with OVA, cultured 24 hours. The protocol: Dendritic cells DC2.4 were sensitized by treatment with ovalbumin (OVA) and cultured for 24 hours with curcumin and wheat GSA protein-curcumin composite nanoparticles as experimental groups, respectively, and relevant experiments were conducted. Total RNA was extracted from the cells, and subjected to reverse transcription according to the instructions to obtain cDNA of relevant cells, and a quantitative reverse transcription polymerase chain reaction (qRT-PCR) was carried out by using a real-time fluorescence quantitative PCR system.
In general terms: Real-time PCR tracks product formation cycle by cycle.

Data set [2] relates to wheat GSA protein (globulin-1 S allele). The data set can be described thus: Fluorescence quenching determination of the binding force of wheat GSA protein to curcumin. To be noted: for KSV (Stern-Volmer dynamic quenching constant): GSA 1 μM, curcumin 1-10 μM. The protocol: A wheat GSA protein solution and a curcumin solution were mixed in a certain ratio (1:1, 1:2, 1:5, 1:10) at different temperatures (298 K, 303 K, 310 K) for 2 hours. The final concentration of GSA was 1 μM, wherein the molecular weight of GSA was 56.16 KDa and the concentration of curcumin was 1 μM, 2 μM, 5 μM and 10 μM. The excitation spectrum was set at 280 nm, the emission spectrum was from 320 nm to 500 nm, and the recording temperature was 298 K, 303 K, and 310 K.
At an excitation wavelength of 280 nm, tryptophan and tyrosine residues will be excited. Binding of proteins and small molecules will lead to a decrease in fluorescence emission. As the concentration of curcumin increased, the fluorescence intensity decreased constantly and a slight red shift appeared.
Fluorescence quenching can be divided into dynamic quenching and static quenching. A dynamic quenching process can be distinguished by a Stern-Volmer equation: F0/F=1+KSV[Q]=1+Kqτ0[Q] (1)
wherein F0 and F are the GSA fluorescence intensity of the system in the absence and presence of curcumin, respectively; [Q] is the concentration of a quencher curcumin; and Kq is a fluorescence quenching rate constant.
Values for a static quenching mechanism, a binding constant and the number of binding sites can be obtained from a […] equation: log[(F0-F)/F]=log(Ka)+n log[Q] (2)
wherein Ka is a binding constant, [Q] is the concentration of curcumin, and n is the number of binding sites. A log-log plot of log[(F0−F)/F] versus log[Q] was made at 298 K, 303 K, and 310 K, respectively, according to the equation, as shown in FIG. 3. Ka and n at different temperatures were obtained from the intercept and slope.
To determine the action force between GSA and curcumin, the temperature-dependent thermodynamic parameters (ΔG, ΔH, and ΔS) were calculated using the following equations: -lnK==−ΔH/RT+ΔS/RΔG=ΔH−TΔS (3) • wherein R is a gas constant (8.314 J/mol*K), and T is the experimental temperature.

Regarding `COc1cc(/C=C/C(=O)CC(=O)/C=C/c2ccc(O)c(OC)c2)ccc1O` [curcumin, Curcumin], the “absorbance at 426 nm after UV irradiation” value in data set [1] (2 h of UV irradiation) turned out to be 0.606; in data set [1] (5 h of UV irradiation), 0.252; in data set [1] (6 h of UV irradiation), 0.214. For the same molecule, the “decrease of absorbance after UV irradiation” value in data set [1] (6 h of UV irradiation) was found to be 75%. The “alleviating effect on the allergic effect produced by OVA (pro-inflammatory cytokine mRNA such as IL-6)” value in the data set on Dendritic cells DC2.4 is reported as “a certain alleviating effect”. Also, the “Kq (fluorescence quenching rate constant)” value in data set [2] (298 K) is on record as 1.3981 10^13 L/mol*s; in data set [2] (303 K), 2.0211 10^13 L/mol*s; in data set [2] (310 K) it was 3.0636 10^13 L/mol*s. The “Ka value, order of magnitude” value in data set [2] (298 K, 303 K, and 310 K, 120 min) is ~10^6. Besides, the “Ka (binding constant)” value in data set [2] (298 K, 120 min) is on record as 8.5822 10^6 L/mol; in data set [2] (303 K, 120 min), 15.7797 10^6 L/mol; in data set [2] (310 K, 120 min), 16.9238 10^6 L/mol. Further, the figures for the “KSV (Stern-Volmer dynamic quenching constant)” value in data set [2] (298 K), in data set [2] (303 K) and in data set [2] (310 K) were 1.3981 10^5 L/mol, 2.0211 10^5 L/mol and 3.0636 10^5 L/mol, respectively.
